{"source": "patent US20240287172A1", "about": "“PROTEIN BINDERS TO IRHOM2 EPITOPES” (SCIRHOM GMBH, priority 2019, published 2024)", "key": {"[1]": {"test_system": "LPS-induced release of endogenous TNFα from human THP-1 monocytic cells", "assay": "ELISA-based TNFα release assay, LPS-induced, THP-1 cells", "type": "cell-based", "details": "LPS 50 ng/ml, 2 hours, antibodies purified from hybridoma supernatants and IgG at 10 μg/ml, Batimastat at 10 μM", "procedure": "In the following study, ELISA-based TNFα release assays were performed to verify the inhibitory effects of the purified antibodies of the invention on LPS-induced release of endogenous TNFα from human THP-1 monocytic cells.\n(§1) In brief, on day 1, Nunc black MaxiSorp® 96-well plates (Thermo Fisher Scientific, USA) were coated overnight with 100 μl per well of mouse anti-human TNFα capture antibody (provided as part of the DuoSet ELISA kit) at 4 μg/ml TBS at 4° C. On day 2, the capture antibody solution was removed and MaxiSorp® plates were blocked with 300 μl per well of TBS, 1% BSA at room temperature for 3 hours. […]\n(§2) Following another round of 4 times washing with 350 μl TBS-T (Carl Roth, Germany) per well on a 96-head plate washer (Tecan Group, Switzerland) and careful removal of all buffer traces after the fourth cycle, 100 μl AttoPhos substrate solution (Promega, USA) per well was added for incubation in the dark at room temperature for 1 hour. Using an infinite M1000 (Tecan Group, Switzerland) microplate reader, the fluorescence of each well was collected at an excitation wavelength of 435 nm and an emission wavelength of 555 nm. […]"}, "[2]": {"test_system": "PMA-induced release of endogenous HB-EGF from human U-937 cells", "assay": "ELISA-based HB-EGF release assay, PMA-induced, U-937 cells", "type": "cell-based", "details": "PMA 25 ng/ml, 6 hours, murine (m) and chimeric (ch) antibodies and IgG at 3 μg/ml, Batimastat at 10 μM", "procedure": "as §1, with “for 7 hours” for “overnight”, “rat” for “mouse”, “HB-EGF” for “TNFα”, “2” for “4”, “room temperature. Capture” for “4° C. On day 2, the capture”\nas §2"}}, "data": [{"molecule": "CNC(=O)[C@H](Cc1ccccc1)NC(=O)[C@H](CC(C)C)[C@H](CSc1cccs1)C(=O)NO", "note": "[Batimastat]", "values": [{"measurement": "inhibition at 10 µM", "setting": "[1]", "result": 96.2, "unit": "%"}, {"measurement": "inhibition at 10 µM", "setting": "[2]", "result": 100, "unit": "%"}]}]}
